Test results published in PubChem BioAssay (NCI).
Values joined by “and” are separate entries in the source; they are usually repeats but may differ in a detail not shown here. Identical values can stand only once.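 Test compounds were applied to cells in 96-well plates for 48 hours at 5 doses. GI50 marks 50% less growth. The concentration for full growth arrest is given as TGI.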

Columns and labels:
Assay in all cases: NCI-60 cell line screen, 48 h
CCRF-CEM leukemia = test system: CCRF-CEM leukemia
EKVX NSCLC = test system: EKVX NSCLC
A549 NSCLC = test system: A549 NSCLC
OVCAR-5 ovarian = test system: OVCAR-5 ovarian
RPMI-8226 leukemia = test system: RPMI-8226 leukemia
NCI-H522 lung = test system: NCI-H522 lung
HS 578T breast = test system: HS 578T breast
OVCAR-3 ovarian = test system: OVCAR-3 ovarian
HCT-15 colon = test system: HCT-15 colon
M14 melanoma = test system: M14 melanoma
NCI-H23 lung = test system: NCI-H23 lung
K-562 leukemia = test system: K-562 leukemia
HT29 colon = test system: HT29 colon
HCT-116 colon = test system: HCT-116 colon
DU-145 prostate = test system: DU-145 prostate
SK-MEL-28 melanoma = test system: SK-MEL-28 melanoma

Compound | TGI (CCRF-CEM leukemia) | TGI (EKVX NSCLC) | TGI (A549 NSCLC) | TGI (OVCAR-5 ovarian) | TGI (RPMI-8226 leukemia) | TGI (NCI-H522 lung) | TGI (HS 578T breast) | TGI (OVCAR-3 ovarian) | TGI (HCT-15 colon) | TGI (M14 melanoma) | TGI (NCI-H23 lung) | TGI (K-562 leukemia) | TGI (HT29 colon) | TGI (HCT-116 colon) | TGI (DU-145 prostate) | TGI (SK-MEL-28 melanoma) | GI50 (HS 578T breast) | GI50 (NCI-H23 lung)
O=Nc1c(O)cc(Nc2cccnc2)c2ccccc12 | 26.2 µM | > 100 µM | > 100 µM | > 100 µM | 85 µM | 28 µM | > 100 µM | 11.8 µM | 64.1 µM | > 100 µM | 76 µM | 58.8 µM | 50.9 µM | > 100 µM | > 100 µM | – | – | –
O=C(N/N=C/C=C/c1ccc([N+](=O)[O-])o1)c1ccc(C(=O)N/N=C/C=C/c2ccc([N+](=O)[O-])o2)cc1 | > 20.3 µM | > 100 µM | > 100 µM | > 100 µM | > 32.9 µM | 89 µM | > 100 µM | > 100 µM | > 100 µM | 49.7 µM | > 100 µM | > 93.5 µM | > 100 µM | 25.7 µM | > 73.4 µM | > 100 µM | – | –
CSc1c(C#N)c(S)[nH]c(=O)c1C#N | > 100 µM | > 100 µM | > 100 µM | > 100 µM | > 100 µM | > 100 µM | > 100 µM | > 100 µM | > 100 µM | > 100 µM | > 100 µM | > 100 µM | > 100 µM | > 100 µM | > 100 µM | > 100 µM | – | –
S=C(N1CCN(c2ccccc2)CC1)N1CCN(c2ccccc2)CC1 | 68.7 µM | > 100 µM | > 100 µM | > 100 µM | > 100 µM | > 100 µM | > 100 µM | > 100 µM | > 100 µM | > 100 µM | > 100 µM | > 100 µM | > 100 µM | > 100 µM | > 100 µM | > 100 µM | – | –
CC1C(c2ccccc2O)c2cc3c(cc2OC1N1CCOCC1)OCO3 (stereo not given) | 61.3 µM | > 100 µM | 80.7 µM | > 100 µM | 39.1 µM | 37.8 µM | 57.9 µM | 60.6 µM | > 100 µM | > 100 µM | 81 µM | 90.6 µM | 68.4 µM | 75.9 µM | > 100 µM | > 100 µM | – | –
COC1CC(O[C@H]2CC[C@@]3(C)[C@@H](CC[C@]4(O)[C@@H]3CC[C@]3(C)[C@@H](C(C)=O)[C@H](OC(=O)CC(C)C)[C@@H](OC(=O)c5ccccc5)[C@@]34O)C2)OC(C)C1OC1CC(OC)C(OC2OC(C)C(O)C(OC)C2O)C(C)O1 (stereo not given in full) | > 25 µM | > 25 µM | > 25 µM | > 25 µM | 14.5 µM | > 25 µM | > 25 µM | > 25 µM | > 25 µM | > 25 µM | > 25 µM | > 25 µM | > 25 µM | > 25 µM | > 25 µM | > 25 µM | – | –
O=C(NCCCN1CCN(CCCNC(=O)Nc2cccc3ccccc23)CC1)Nc1cccc2ccccc12 | 71.3 µM | 33.2 µM | 33.5 µM | 28.3 µM | 40 µM | 33.4 µM | 49.1 µM | 26.5 µM | 31.9 µM | 29.9 µM | 33.6 µM | > 100 µM | 44.3 µM | 28 µM | 31.3 µM | 28.7 µM | – | –
O=C1C(S(=O)(=O)c2ccccc2)=C(CS(=O)(=O)c2ccccc2)[C@@H](OCc2ccccc2)[C@@H]1OCc1ccccc1 | 42.7 µM | > 100 µM | > 100 µM | 75.4 µM | 36.1 µM | 35.9 µM | 67 µM | 27.5 µM | 44 µM | 32.1 µM | 36.3 µM | 35.8 µM | 26.3 µM | 27 µM | > 100 µM | 35.9 µM | – | –
CCOC(=O)c1cc(C2CCN(Cc3ccccc3)C2=S)c(C(=O)C=[N+]=[N-])[nH]1 (stereo not given) | > 100 µM | 89.6 µM | > 100 µM | > 100 µM | > 100 µM | 46.7 µM | > 100 µM | 45.1 µM | 53.8 µM | 48.7 µM | 53.4 µM | > 100 µM | > 100 µM | > 100 µM | > 100 µM | 51.5 µM | – | –
Nc1nc(=S)n(-c2ccc(Cl)cc2)c2nc3ccccc3cc12 | > 100 µM | > 100 µM | > 100 µM | > 100 µM | > 100 µM | > 100 µM | > 100 µM | > 100 µM | > 100 µM | > 100 µM | > 100 µM | > 100 µM | > 100 µM | > 100 µM | > 100 µM | > 100 µM | – | –
COc1cc2c[n+](C)c3c(c2cc1OC)Cc1cc2c(cc1-3)OCO2 | > 100 µM | > 100 µM | > 100 µM | > 100 µM | > 100 µM | > 100 µM | > 100 µM | > 100 µM | > 100 µM | > 100 µM | > 100 µM | > 100 µM | > 100 µM | > 100 µM | > 100 µM | > 100 µM | – | –
COc1ccc(/C(=N\Nc2ccccn2)c2ccccn2)cc1 | > 100 µM | 13.6 µM | 11.1 µM | 98.9 µM | 3.85 µM | 14.8 µM | 18.4 µM | 19.5 µM | 12.5 µM | 3.76 µM | 9.55 µM | > 100 µM | 14 µM | 17.4 µM | > 100 µM | > 53 µM | – | –
CC1CN=C(Nc2ccc(F)c(Cl)c2)S1 (stereo not given) | > 100 µM | > 100 µM | > 100 µM | > 100 µM | > 100 µM | > 100 µM | > 100 µM | > 100 µM | > 100 µM | > 100 µM | > 100 µM | > 100 µM | > 100 µM | > 100 µM | > 100 µM | > 100 µM | – | –
Cc1cccc2c1c(=O)c1c(O)cc(O)cc1n2C | > 100 µM | > 100 µM | > 100 µM | > 100 µM | > 100 µM | > 100 µM | > 100 µM | > 100 µM | > 100 µM | > 100 µM | > 100 µM | > 100 µM | > 100 µM | > 100 µM | > 100 µM | > 100 µM | – | –
N#Cc1ccc(C2NN=CC23C(=O)c2ccccc2OC3c2ccccc2)cc1 (stereo not given) | > 100 µM | 84.8 µM | > 100 µM | > 100 µM | 61.4 µM | 54.4 µM | > 100 µM | > 100 µM | > 100 µM | > 100 µM | > 100 µM | > 100 µM | > 100 µM | 69 µM | > 100 µM | > 100 µM | – | –
CN(CCCn1ccnc1[N+](=O)[O-])CCCn1ccnc1[N+](=O)[O-] | > 100 µM | > 100 µM | > 100 µM | > 100 µM | > 100 µM | > 100 µM | > 100 µM | > 100 µM | > 100 µM | > 100 µM | > 100 µM | > 100 µM | > 100 µM | > 100 µM | > 100 µM | > 100 µM | – | –
Cc1ccc(N=C2C(c3ccccc3)=C(SC3=C(c4ccccc4)C(=Nc4ccc(C)cc4)c4ccccc43)c3ccccc32)cc1 | > 100 µM | 43.9 µM | > 100 µM | > 100 µM | > 100 µM | > 100 µM | 22.9 µM | > 100 µM | > 100 µM | > 100 µM | 41.6 µM | > 100 µM | > 48.9 µM | > 100 µM | > 100 µM | > 100 µM | – | –
COc1cccc(/C=C\c2ccc(O)cc2)c1 | 1.22 µM | > 100 µM | > 80.9 µM | > 100 µM | > 100 µM | 56.8 µM | 75 µM | > 82.7 µM | > 76.1 µM | 63.5 µM | 39.6 µM | > 50.4 µM | 53.7 µM | 74 µM | 56.6 µM | > 100 µM | – | –
COc1ccc(/C=C/C(=O)c2ccc(OC(=O)/C=C/c3ccccc3)cc2)cc1 | 21.5 µM | > 92.2 µM | > 100 µM | > 100 µM | 24.7 µM | 54.7 µM | > 100 µM | > 100 µM | > 100 µM | > 100 µM | 73.8 µM | > 100 µM | 39.6 µM | 40.4 µM | > 74.2 µM | > 100 µM | – | –
O=c1oc2ccc3ccccc3c2cc1-c1nc2ccc([N+](=O)[O-])cc2o1 | > 100 µM | > 100 µM | > 79.1 µM | > 100 µM | > 100 µM | > 100 µM | > 100 µM | > 100 µM | > 100 µM | > 75.3 µM | > 86.9 µM | > 100 µM | > 100 µM | > 100 µM | > 100 µM | > 100 µM | – | –
O=c1c2c(F)c(F)c(F)c(F)c2sc2nccn12 | 29.6 µM | 50.2 µM | 36.7 µM | 36.3 µM | 42.4 µM | 37.2 µM | 76.2 µM | 29.8 µM | 29 µM | 32 µM | 34.9 µM | 29.4 µM | 34.7 µM | 27.7 µM | 41.9 µM | 53.5 µM | – | –
CC(=O)/C(C=Nc1c(C)n(C)n(C)c1=O)=C(/O)c1ccccc1 | > 50 µM | > 50 µM | > 50 µM | > 50 µM | > 50 µM | > 50 µM | > 50 µM | > 50 µM | > 50 µM | > 50 µM | > 50 µM | > 50 µM | > 50 µM | > 50 µM | > 50 µM | > 50 µM | – | –
O=C1C=CC2(C=C1)C[C@H](NC(=O)OCc1ccccc1)C(=O)O2 | 10 µM | 23.7 µM | > 78.5 µM | 38.2 µM | 17.2 µM | 8.53 µM | > 100 µM | 30.4 µM | 27 µM | 32.6 µM | 32.5 µM | > 32.5 µM | 31.9 µM | 40.3 µM | 85.3 µM | 27 µM | – | –
COc1cc2c[n+](C)c3c4cc(OC)c(OC)cc4ccc3c2cc1OC | > 100 µM | > 100 µM | > 100 µM | > 100 µM | > 100 µM | 42.2 µM | > 100 µM | > 100 µM | > 100 µM | > 100 µM | > 100 µM and 77 µM | > 100 µM | > 100 µM | > 100 µM | > 100 µM | > 100 µM | > 100 µM and 10.3 µM | 40.8 µM and 19.5 µM
